Values quoted from earlier work in patent US6458821B1, “N-substituted azabicycloheptane derivatives, production and use thereof” (Abbott Laboratories, priority 1998, dated 2002).

Columns and labels:
serotonin 2A receptor = serotonin 2A receptor (Homo sapiens, UniProt P28223); conditions: background statement on substance A
D2 = D2 (Homo sapiens, UniProt P14416); conditions: D4/5-HT2A versus D2; background statement
[1] = limits the dosage of substance A
dopamine D4 receptor = target: T1, dopamine D4 receptor (Homo sapiens, UniProt P21917); conditions: background statement on substance A
T1 sequence (P21917 1-419): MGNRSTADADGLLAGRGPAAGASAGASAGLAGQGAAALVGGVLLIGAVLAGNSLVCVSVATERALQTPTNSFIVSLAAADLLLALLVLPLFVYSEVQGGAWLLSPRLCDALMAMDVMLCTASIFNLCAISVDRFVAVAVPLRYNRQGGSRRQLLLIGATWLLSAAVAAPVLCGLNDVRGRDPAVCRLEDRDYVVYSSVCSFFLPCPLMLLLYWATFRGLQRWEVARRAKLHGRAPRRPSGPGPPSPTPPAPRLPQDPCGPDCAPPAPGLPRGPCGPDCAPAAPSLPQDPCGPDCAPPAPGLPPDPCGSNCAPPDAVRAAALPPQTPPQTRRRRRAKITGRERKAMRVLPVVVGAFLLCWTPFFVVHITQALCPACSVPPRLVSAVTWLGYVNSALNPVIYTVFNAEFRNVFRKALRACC

Sequence of D2 (P14416 whole entry): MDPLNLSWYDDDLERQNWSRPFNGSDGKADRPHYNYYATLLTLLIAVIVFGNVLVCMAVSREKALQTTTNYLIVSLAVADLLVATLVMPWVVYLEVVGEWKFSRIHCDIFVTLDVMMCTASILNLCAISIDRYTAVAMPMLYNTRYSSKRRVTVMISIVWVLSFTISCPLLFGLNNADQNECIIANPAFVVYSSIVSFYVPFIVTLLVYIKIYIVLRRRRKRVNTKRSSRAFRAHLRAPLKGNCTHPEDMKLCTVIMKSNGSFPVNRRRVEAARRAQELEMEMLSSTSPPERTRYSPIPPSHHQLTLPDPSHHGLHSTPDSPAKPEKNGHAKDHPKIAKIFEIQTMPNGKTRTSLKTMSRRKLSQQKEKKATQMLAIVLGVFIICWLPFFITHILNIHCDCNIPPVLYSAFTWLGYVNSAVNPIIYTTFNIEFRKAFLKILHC
Sequence of serotonin 2A receptor (P28223 whole entry): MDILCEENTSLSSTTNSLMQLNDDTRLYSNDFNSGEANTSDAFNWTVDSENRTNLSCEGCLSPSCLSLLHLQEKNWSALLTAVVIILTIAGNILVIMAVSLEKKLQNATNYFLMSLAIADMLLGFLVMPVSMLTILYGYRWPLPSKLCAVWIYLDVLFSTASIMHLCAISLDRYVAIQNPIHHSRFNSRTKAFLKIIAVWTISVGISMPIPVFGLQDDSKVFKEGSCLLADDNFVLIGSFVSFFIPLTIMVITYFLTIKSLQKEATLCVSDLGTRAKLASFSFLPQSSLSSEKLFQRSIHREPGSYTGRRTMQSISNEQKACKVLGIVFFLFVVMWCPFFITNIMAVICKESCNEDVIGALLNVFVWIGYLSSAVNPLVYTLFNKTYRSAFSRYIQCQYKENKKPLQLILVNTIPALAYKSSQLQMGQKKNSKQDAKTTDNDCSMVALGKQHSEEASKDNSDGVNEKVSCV

O=c1[nH]c2ccccc2c(=O)n1CCN1C[C@H]2C[C@H](c3ccc(F)cc3)[C@H]2C1 [substance A, (+)-(1S,5R,6S)-exo-3-[2-[6-(4-fluorophenyl)-3-azabicyclo[3.2.0]-heptan-3-yl]ethyl]-1H,3H-quinazoline-2,4-dione]
5-HT2A affinity (serotonin 2A receptor): high
selectivity versus D2 (D2): good selectivity
prolongations in the QT interval in the ECG [1]: prolongations which occur in the QT interval
D4 affinity (dopamine D4 receptor): high
